In article PMC6915728 (Nature Communications, 2019):
Like-named read-outs stand apart in the source and are kept apart here.

Experiments:
[1] = tested on: E. coli BW25113 overexpression strains (ASKA plasmids); assay: Minimum inhibitory concentration (MIC), serial broth dilution, single-gene overexpression strains vs empty-vector control; assay type: cell-based, Escherichia coli; conditions: broth dilution, MS medium, 100 µM IPTG, 30 °C, 20-24 h, OD600, 3 replicates
Experimental: Minimum inhibitory concentrations (MIC) were determined with a standard serial broth dilution technique with a minor modification. Specifically, instead of a two-fold dilution series, smaller AMP concentration steps were used (typically 1.2-fold) for two reasons. […] Second, gene overexpressions caused typically only small changes in the MICs of AMPs and therefore higher resolution was required. The protocol was as follows. From a stock solution of an AMP, 12-steps serial dilution was prepared in fresh MS medium in 96-well microtiter plates. Each AMP was represented in 11 different concentrations (3 wells per AMP concentration per strain). Three wells contained only medium to check the growth in the absence of AMP. After overnight growth in MS medium supplemented with chloramphenicol, bacterial strains were diluted 20-fold into fresh MS medium and grown until the cell density reached OD600 ~1. Cells were induced by 100 µM of IPTG and incubated for 1 h at 30 °C with continuous shaking at 300 rpm. Following incubation, approximately half-million cells were inoculated into the wells of the 96-well microtiter plate with a 96‐pin replicator. We used three independent replicates for each strain and the corresponding control. Two rows in the 96-well plate contained only MS medium in order to obtain the background OD value of the medium. Plates were incubated at 30 °C with continuous shaking at 300 rpm. After 20–24 h of incubation, OD600 values were measured in a microplate reader (Biotek Synergy 2).

[2] = tested on: E. coli gene overexpression; conditions: gene prfA overexpressed; ref 11 (Matsumoto et al. 2017); cited from earlier work
Source text: Supplement 41467_2019_13618_MOESM1_ESM.docx, table 1: Supplementary Table 1. Collected examples of E. coli gene overexpression from the literature as a confirmation of our chemical-genetic screen results. | column: Overexpression phenotype

[3] = tested on: E. coli K12 BW25113 carrying the pooled ASKA overexpression plasmid library (~4400 ORFs); assay: Chemical-genetic profiling: pooled competitive growth of the ASKA gene-overexpression library with and without AMP, deep sequencing readout; assay type: cell-based, Escherichia coli; conditions: overexpressed gene aaaD; presence vs absence of AMP; average of biological replicates
Source text: We generated chemical-genetic interaction profiles for a diverse set of AMPs (Table 1) by screening them against a comprehensive library of gene overexpressions in E. coli[21]. Increasing gene dosage is a widely applied approach to reveal the targets of small-molecule antibiotics[22],[23]. It also informs on the ‘latent resistome’, that is, the collection of genes where a change from native expression level enhances resistance to a particular drug[24]. We applied a sensitive competition assay by monitoring growth of a pooled plasmid library, overexpressing all the E. coli ORFs (Fig. 1a), as we reported earlier. Specifically, E. coli cells carrying the pooled plasmid collection were grown in the presence or absence of one of the 15 AMPs tested, at a sub-inhibitory concentration that increased the doubling time of the whole population by 2-fold. Following 12 generations of growth, the plasmid pool was isolated from each selection and the relative abundance of each plasmid was determined by a deep sequencing readout (see Methods).
We carried out chemical-genetic profiling to determine the impact of the overexpression of each E. coli ORF on bacterial susceptibility to each of the 15 different AMPs. To this end, we used the complete set of E. coli K-12 Open Reading Frame Archive (ASKA) plasmid library (GFP minus) where each E. coli ORF is cloned into a high copy number expression plasmid (pCA24N-ORFGFP(-)). Prior to screening, the ASKA library was grown in the original host strain E. coli K-12 AG1 in 96-well plates (growth conditions: 37 °C, 280 rpm, LB medium). An equal aliquot of each member of the ASKA library (each well of the 96-well plates) was pooled together and the plasmid DNA (pCA24N-ORF-GFP(-)) was isolated and transformed into E. coli K12 BW25113 strain[51]. To obtain a negative control strain not having any overexpressed gene, the plasmid without a cloned ORF (pCA24N-noORF) was also transformed into the same E. coli strain. Then, on the pooled collection, we applied a previously reported competitive growth assay. Specifically, the pooled overexpression library and the control strain were grown in parallel in MS medium supplemented with 20 µg per ml chloramphenicol and the overexpression was induced by 100 µM isopropyl-ß-D-thiogalactopyranoside (IPTG). After 1 h induction, ~5 × 10^5 bacterial cells from the library were inoculated into each well of a 96-well microtiter plate containing a concentration gradient of an AMP in the MS medium supplemented with 20 µg per ml chloramphenicol and 100 µM IPTG. At the same time, both the library and the control strain with the empty plasmid were grown in the absence of any AMPs. We took special care to grow both of these samples in the exact same conditions as the samples in the presence of AMPs. Bacterial growth was monitored in a microplate reader (Biotek Synergy 2) for 24 h. At the end of the exponential growth phase, we selected those wells in which the doubling time of the cell population was increased by 2-fold. Then, from these wells, cells were split into four equal proportion and each was transferred into 20 mL of MS medium supplemented with the corresponding AMP in four different concentrations in the range that slowed down growth by two-fold in the microtitre plate. […] The rationale for this 2-step process was to maintain competition in exponential phase for 12 generations of growth, efficiently control the growth rate in a reproducible manner and obtain the plasmid pool with standard DNA isolation protocol (innuPREP plasmid mini Kit, Analytik Jena AG) in a yield that is enough for the downstream analysis. The cultures were vigorously shaken along the entire protocol to make sure that the cultures are completely homogeneous and therefore biasing interactions between clones (such as trans-resistance) was minimized. […]

[4] = tested on: AMP-evolved E. coli lines; conditions: ref Spohn et al 2019, cited from earlier work
Source text: Supplement 41467_2019_13618_MOESM13_ESM.xlsx, sheet "Figure 6 and S15" | column: A comprehensive dataset of antimicrobial susceptibility of AMP-adapted lines to antimicrobial peptides (AMPs).

bacterial membrane = conditions: literature mining; ref superscript numbers in the cell, listed in Supplementary Data 7 sheet References; cited from earlier work
Source text: Supplement 41467_2019_13618_MOESM10_ESM.xlsx, sheet "AMP details" | column: Pore formation

[5] = overexpression strain mlaD, MIC of the overexpression strain / MIC of the control strain (wild-type carrying the empty plasmid)

With “GNNRPVYIPQPRPPHPRL [AP, Apidaecin IB, antimicrobial peptide, source Apis mellifera L; cluster C3]” the “Relative MIC” value ([1]; overexpression strain cvpA, MIC of overexpression strain / MIC of empty-plasmid control) was 0.64, the “Relative MIC” value ([1]; overexpression strain gadW, MIC of overexpression strain / MIC of empty-plasmid control) was 2.5 and the “Relative MIC” value ([1]; overexpression strain lptB, MIC of overexpression strain / MIC of empty-plasmid control) was 0.64. The “Relative MIC” value [1, 5] was 0.6, the “Overexpression phenotype, Literature” value [2] was “Resistance^11” and the Chemical-genetic score [3] was -0.578 log2 fold change.

In the case of “GWGSFFKKAAHVGKHVGKAALTHYL [PLEU, Pleurocidin, antimicrobial peptide from Pleuronectes americanus; cluster C2]”, the “Relative MIC” value [1, 5] is given as 1, the “Relative MIC” value ([1]; overexpression strain nikB, MIC of overexpression strain / MIC of empty-plasmid control) is given as 0.8 and the “Relative change in MIC (MIC of the AMP-adpated line / MIC of the ancestral strain)” value ([4]; AMP-adapted line BAC5_3) is given as 1. For the same sequence, the “Relative change in MIC (MIC of the AMP-adpated line / MIC of the ancestral strain)” value ([4]; AMP-adapted line BAC5_5) was 0.8, the “Relative change in MIC (MIC of the AMP-adpated line / MIC of the ancestral strain)” value ([4]; AMP-adapted line BAC5_7) was 1 and the “Relative change in MIC (MIC of the AMP-adpated line / MIC of the ancestral strain)” value ([4]; AMP-adapted line BAC5_10) was 1. The “Relative change in MIC (MIC of the AMP-adpated line / MIC of the ancestral strain)” value ([4]; AMP-adapted line CAP18_2) was 2.1, the “Relative change in MIC (MIC of the AMP-adpated line / MIC of the ancestral strain)” value ([4]; AMP-adapted line CAP18_5) was 2.5 and the “Relative change in MIC (MIC of the AMP-adpated line / MIC of the ancestral strain)” value ([4]; AMP-adapted line CAP18_6) was 2.3. For the same sequence, the “Relative change in MIC (MIC of the AMP-adpated line / MIC of the ancestral strain)” value ([4]; AMP-adapted line CAP18_8) was 1.7, the “Relative change in MIC (MIC of the AMP-adpated line / MIC of the ancestral strain)” value ([4]; AMP-adapted line CAP18_10) was 4.3 and the “Relative change in MIC (MIC of the AMP-adpated line / MIC of the ancestral strain)” value ([4]; AMP-adapted line HBD3_3) was 1.3. The “Relative change in MIC (MIC of the AMP-adpated line / MIC of the ancestral strain)” value ([4]; AMP-adapted line HBD3_6) was 1.7, the “Relative change in MIC (MIC of the AMP-adpated line / MIC of the ancestral strain)” value ([4]; AMP-adapted line HBD3_8) was 1.7 and the “Relative change in MIC (MIC of the AMP-adpated line / MIC of the ancestral strain)” value ([4]; AMP-adapted line HBD3_10) was 1.3. The “Relative change in MIC (MIC of the AMP-adpated line / MIC of the ancestral strain)” value ([4]; AMP-adapted line LL37_1) was 1.4, the “Relative change in MIC (MIC of the AMP-adpated line / MIC of the ancestral strain)” value ([4]; AMP-adapted line LL37_3) was 1.2 and the “Relative change in MIC (MIC of the AMP-adpated line / MIC of the ancestral strain)” value ([4]; AMP-adapted line LL37_6) was 1.4. The “Relative change in MIC (MIC of the AMP-adpated line / MIC of the ancestral strain)” value ([4]; AMP-adapted line LL37_7) was 64, the “Relative change in MIC (MIC of the AMP-adpated line / MIC of the ancestral strain)” value ([4]; AMP-adapted line LL37_10) was 1.6 and the “Relative change in MIC (MIC of the AMP-adpated line / MIC of the ancestral strain)” value ([4]; AMP-adapted line PEX_1) was 2.3. For the same sequence, the “Relative change in MIC (MIC of the AMP-adpated line / MIC of the ancestral strain)” value ([4]; AMP-adapted line PEX_4) was 2.3, the “Relative change in MIC (MIC of the AMP-adpated line / MIC of the ancestral strain)” value ([4]; AMP-adapted line PEX_5) was 1.4 and the “Relative change in MIC (MIC of the AMP-adpated line / MIC of the ancestral strain)” value ([4]; AMP-adapted line PEX_6) was 2.8. The “Relative change in MIC (MIC of the AMP-adpated line / MIC of the ancestral strain)” value ([4]; AMP-adapted line PEX_7) was 1.7, the “Relative change in MIC (MIC of the AMP-adpated line / MIC of the ancestral strain)” value ([4]; AMP-adapted line PR39_1) was 1.4 and the “Relative change in MIC (MIC of the AMP-adpated line / MIC of the ancestral strain)” value ([4]; AMP-adapted line PR39_2) was 1.1. For the same sequence, the “Relative change in MIC (MIC of the AMP-adpated line / MIC of the ancestral strain)” value ([4]; AMP-adapted line PR39_5) was 1, the “Relative change in MIC (MIC of the AMP-adpated line / MIC of the ancestral strain)” value ([4]; AMP-adapted line PR39_7) was 0.9 and the “Relative change in MIC (MIC of the AMP-adpated line / MIC of the ancestral strain)” value ([4]; AMP-adapted line PR39_10) was 0.9. For the same sequence, the “Relative change in MIC (MIC of the AMP-adpated line / MIC of the ancestral strain)” value ([4]; AMP-adapted line PROA_2) was 1.6, the “Relative change in MIC (MIC of the AMP-adpated line / MIC of the ancestral strain)” value ([4]; AMP-adapted line PROA_3) was 0.9 and the “Relative change in MIC (MIC of the AMP-adpated line / MIC of the ancestral strain)” value ([4]; AMP-adapted line PROA_7) was 1.1. The “Relative change in MIC (MIC of the AMP-adpated line / MIC of the ancestral strain)” value ([4]; AMP-adapted line PROA_8) was 1.2, the “Relative change in MIC (MIC of the AMP-adpated line / MIC of the ancestral strain)” value ([4]; AMP-adapted line PROA_9) was 0.9 and the “Relative change in MIC (MIC of the AMP-adpated line / MIC of the ancestral strain)” value ([4]; AMP-adapted line PXB_2) was 0.9. For the same sequence, the “Relative change in MIC (MIC of the AMP-adpated line / MIC of the ancestral strain)” value ([4]; AMP-adapted line PXB_5) was 1.6, the “Relative change in MIC (MIC of the AMP-adpated line / MIC of the ancestral strain)” value ([4]; AMP-adapted line PXB_6) was 4.8 and the “Relative change in MIC (MIC of the AMP-adpated line / MIC of the ancestral strain)” value ([4]; AMP-adapted line PXB_8) was 2.1. For the same sequence, the “Relative change in MIC (MIC of the AMP-adpated line / MIC of the ancestral strain)” value ([4]; AMP-adapted line PXB_10) was 6.3 and the “Pore formation (whether AMP makes pores in the bacterial membrane)” value (bacterial membrane) was “Yes18”.
